Experiments:
FGFR3 = FGFR3 (Homo sapiens, UniProt P22607); experiment: BaF3 panel of […] receptor tyrosine kinases, […] inhibition at […]; assay type: cell-based; conditions: BaF3, read-out: % inhibition at 100 nM
[1] = biological target: vascular endothelial growth factor receptor 1 (Homo sapiens, UniProt P17948); experiment: as above; assay type: cell-based; conditions: BaF3, read-out: % inhibition at 100 nM
MER = biological target: T1, MER (Homo sapiens, UniProt Q12866); experiment: radiometric kinase assay at ATP Km; assay type: biochemical
T1 sequence (Q12866 21-999): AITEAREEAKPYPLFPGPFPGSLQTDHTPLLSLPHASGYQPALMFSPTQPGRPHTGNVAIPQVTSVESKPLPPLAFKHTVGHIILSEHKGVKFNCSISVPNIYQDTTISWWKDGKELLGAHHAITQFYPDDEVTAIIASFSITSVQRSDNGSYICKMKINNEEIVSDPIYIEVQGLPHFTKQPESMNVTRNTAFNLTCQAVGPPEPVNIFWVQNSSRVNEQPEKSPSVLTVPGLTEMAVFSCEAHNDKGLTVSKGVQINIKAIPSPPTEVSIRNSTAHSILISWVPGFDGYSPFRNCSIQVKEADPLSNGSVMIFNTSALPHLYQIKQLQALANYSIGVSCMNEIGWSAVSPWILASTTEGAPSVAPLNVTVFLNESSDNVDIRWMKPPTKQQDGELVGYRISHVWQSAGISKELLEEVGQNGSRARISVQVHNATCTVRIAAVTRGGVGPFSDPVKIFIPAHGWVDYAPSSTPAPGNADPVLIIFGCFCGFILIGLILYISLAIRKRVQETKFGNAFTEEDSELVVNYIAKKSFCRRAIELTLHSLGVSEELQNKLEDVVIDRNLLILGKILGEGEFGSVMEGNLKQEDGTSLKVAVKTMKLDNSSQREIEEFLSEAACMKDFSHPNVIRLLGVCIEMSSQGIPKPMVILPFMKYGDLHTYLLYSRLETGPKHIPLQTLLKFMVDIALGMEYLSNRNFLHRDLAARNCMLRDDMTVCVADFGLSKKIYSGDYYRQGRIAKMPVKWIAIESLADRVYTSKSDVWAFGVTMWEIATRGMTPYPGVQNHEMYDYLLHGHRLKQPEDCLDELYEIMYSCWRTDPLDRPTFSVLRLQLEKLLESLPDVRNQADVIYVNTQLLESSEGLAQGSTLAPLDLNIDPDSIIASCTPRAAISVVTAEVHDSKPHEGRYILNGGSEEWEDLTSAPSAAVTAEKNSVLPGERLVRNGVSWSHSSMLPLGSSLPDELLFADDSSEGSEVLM

FGFR3, sequence (P22607 23-806): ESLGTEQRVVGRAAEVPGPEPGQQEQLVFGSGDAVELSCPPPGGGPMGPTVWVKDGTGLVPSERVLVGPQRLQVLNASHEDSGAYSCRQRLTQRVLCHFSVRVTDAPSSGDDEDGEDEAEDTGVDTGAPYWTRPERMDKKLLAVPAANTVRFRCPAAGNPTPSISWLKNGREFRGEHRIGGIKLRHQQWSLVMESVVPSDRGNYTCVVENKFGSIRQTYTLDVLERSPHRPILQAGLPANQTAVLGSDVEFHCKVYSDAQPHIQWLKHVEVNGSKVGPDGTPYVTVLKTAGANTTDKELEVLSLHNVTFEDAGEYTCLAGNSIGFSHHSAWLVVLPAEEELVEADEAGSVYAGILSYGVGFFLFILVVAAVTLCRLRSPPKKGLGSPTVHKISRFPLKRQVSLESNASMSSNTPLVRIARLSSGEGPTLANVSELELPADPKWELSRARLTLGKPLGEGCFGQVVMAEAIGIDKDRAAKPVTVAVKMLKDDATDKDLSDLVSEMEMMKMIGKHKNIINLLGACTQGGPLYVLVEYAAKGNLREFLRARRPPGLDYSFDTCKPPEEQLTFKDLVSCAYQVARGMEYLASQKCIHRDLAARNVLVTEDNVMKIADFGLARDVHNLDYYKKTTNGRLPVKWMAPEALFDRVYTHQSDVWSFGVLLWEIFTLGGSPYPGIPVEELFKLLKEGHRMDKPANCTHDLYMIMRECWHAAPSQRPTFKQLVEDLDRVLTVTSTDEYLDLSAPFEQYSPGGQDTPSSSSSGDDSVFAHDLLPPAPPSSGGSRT
vascular endothelial growth factor receptor 1, sequence (P17948 27-1338): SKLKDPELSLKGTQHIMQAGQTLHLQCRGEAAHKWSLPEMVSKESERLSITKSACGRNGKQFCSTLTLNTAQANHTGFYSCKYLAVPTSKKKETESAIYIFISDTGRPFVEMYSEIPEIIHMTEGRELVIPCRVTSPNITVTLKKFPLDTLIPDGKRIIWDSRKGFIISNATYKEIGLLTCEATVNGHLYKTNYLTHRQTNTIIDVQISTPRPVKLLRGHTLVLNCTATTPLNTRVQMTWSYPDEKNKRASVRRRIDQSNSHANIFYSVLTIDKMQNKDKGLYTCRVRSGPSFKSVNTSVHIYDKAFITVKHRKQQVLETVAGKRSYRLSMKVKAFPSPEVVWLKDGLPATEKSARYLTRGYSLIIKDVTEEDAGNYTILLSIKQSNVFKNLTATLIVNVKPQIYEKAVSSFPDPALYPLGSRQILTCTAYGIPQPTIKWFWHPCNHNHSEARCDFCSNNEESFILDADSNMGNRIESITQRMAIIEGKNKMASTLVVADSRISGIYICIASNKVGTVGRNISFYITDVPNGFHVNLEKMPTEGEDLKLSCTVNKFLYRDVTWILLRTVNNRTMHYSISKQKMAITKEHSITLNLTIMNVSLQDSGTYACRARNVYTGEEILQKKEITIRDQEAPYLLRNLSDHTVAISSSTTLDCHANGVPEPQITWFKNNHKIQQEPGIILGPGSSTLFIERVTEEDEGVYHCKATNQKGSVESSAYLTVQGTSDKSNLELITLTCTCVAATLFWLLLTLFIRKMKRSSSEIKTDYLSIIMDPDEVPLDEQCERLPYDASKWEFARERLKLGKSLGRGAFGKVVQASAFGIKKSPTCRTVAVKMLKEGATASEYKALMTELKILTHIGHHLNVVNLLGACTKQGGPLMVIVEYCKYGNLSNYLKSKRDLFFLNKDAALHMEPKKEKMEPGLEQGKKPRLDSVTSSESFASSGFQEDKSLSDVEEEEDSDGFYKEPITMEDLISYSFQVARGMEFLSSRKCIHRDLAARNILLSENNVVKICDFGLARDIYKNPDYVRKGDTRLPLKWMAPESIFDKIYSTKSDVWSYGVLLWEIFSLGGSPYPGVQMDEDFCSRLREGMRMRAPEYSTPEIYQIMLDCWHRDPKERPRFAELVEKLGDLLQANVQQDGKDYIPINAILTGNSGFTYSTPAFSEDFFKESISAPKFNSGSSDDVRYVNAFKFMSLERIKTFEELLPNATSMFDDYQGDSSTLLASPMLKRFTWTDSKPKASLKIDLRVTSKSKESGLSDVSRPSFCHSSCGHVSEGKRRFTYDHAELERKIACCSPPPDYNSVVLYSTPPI

Nc1ncc(-c2cnn(C3CCNCC3)c2)cc1-c1nnc(CC2CC2)o1 [SLC-391, 3-(5-(cyclopropylmethyl)-1,3,4-oxadiazole-2-yl)-5-(1-(piperidine-4-yl)-1H-pyrazole-4-yl)pyridine-2-amine]
inhibition at 0.1 µM (FGFR3): 60%
inhibition at 0.1 µM [1]: 60%
IC50 (MER): 44 nM

Source: publication PMC8462401 (Blood, 2021)
